Assay results reported in paper PMC9736855, “Discovery of 3-Amino-1H-pyrazole-Based Kinase Inhibitors to Illuminate the Understudied PCTAIRE Family” (International Journal of Molecular Sciences, 2022).
Several values for one entry are separate records, joined by “and”; a condition that tells them apart may be missing. Identical values can stand only once.

What was measured:
GPRK5 = target: T1, GPRK5 (Homo sapiens, UniProt P34947); test: DSF; type: binding
T1 construct: purchased in-house DSF panel (SGC Frankfurt)
Procedure: (§1) Recombinant protein kinase domains with a concentration of 2 μM were mixed with a 10 μM compound solution in DMSO, 20 mM HEPES, pH 7.5, and 500 mM NaCl. SYPRO Orange (5000×, Invitrogen) was added as a fluorescence probe (1 µl per mL). Subsequently, temperature-dependent protein unfolding profiles were measured, using the QuantStudio™ 5 realtime PCR machine (Thermo Fisher, Waltham, MA, USA). […] The temperature was raised with a step rate of 3 °C per minute. Data points were analyzed with the internal software (Thermal Shift SoftwareTM Version 1.4, Thermo Fisher) using the Boltzmann equation to determine the inflection point of the transition curve [56]. Differences in melting temperature are given as ΔTm values in °C. Measurements were performed in duplicates.

CAMK1D = target: T2, CAMK1D (Homo sapiens, UniProt Q8IU85); test: DSF; type: binding
T2 construct: purchased in-house DSF panel (SGC Frankfurt)
Procedure: Recombinant protein kinase domains with a concentration of 2 μM were mixed with a 10 μM compound solution in DMSO, 20 mM HEPES, pH 7.5, and 500 mM NaCl. SYPRO Orange (5000×, Invitrogen) was added as a fluorescence probe (1 µl per mL). Subsequently, temperature-dependent protein unfolding profiles were measured, using the QuantStudio™ 5 realtime PCR machine (Thermo Fisher, Waltham, MA, USA). […] The temperature was raised with a step rate of 3 °C per minute. Data points were analyzed with the internal software (Thermal Shift SoftwareTM Version 1.4, Thermo Fisher) using the Boltzmann equation to determine the inflection point of the transition curve. Differences in melting temperature are given as ΔTm values in °C. Measurements were performed in duplicates.

MAP2K1 = target: T3, MAP2K1 (Homo sapiens, UniProt Q02750); test: DSF; type: binding
T3 construct: purchased in-house DSF panel (SGC Frankfurt)
Procedure: as §1

CLK3 = target: T4, CLK3 (Homo sapiens, UniProt P49761); test: DSF; type: binding
T4 construct: purchased in-house DSF panel (SGC Frankfurt)
Procedure: as §1

BMPR2 = target: T5, BMPR2 (Homo sapiens, UniProt Q13873); test: DSF; type: binding
T5 construct: purchased in-house DSF panel (SGC Frankfurt)
T5 sequence (Q13873 27-1038): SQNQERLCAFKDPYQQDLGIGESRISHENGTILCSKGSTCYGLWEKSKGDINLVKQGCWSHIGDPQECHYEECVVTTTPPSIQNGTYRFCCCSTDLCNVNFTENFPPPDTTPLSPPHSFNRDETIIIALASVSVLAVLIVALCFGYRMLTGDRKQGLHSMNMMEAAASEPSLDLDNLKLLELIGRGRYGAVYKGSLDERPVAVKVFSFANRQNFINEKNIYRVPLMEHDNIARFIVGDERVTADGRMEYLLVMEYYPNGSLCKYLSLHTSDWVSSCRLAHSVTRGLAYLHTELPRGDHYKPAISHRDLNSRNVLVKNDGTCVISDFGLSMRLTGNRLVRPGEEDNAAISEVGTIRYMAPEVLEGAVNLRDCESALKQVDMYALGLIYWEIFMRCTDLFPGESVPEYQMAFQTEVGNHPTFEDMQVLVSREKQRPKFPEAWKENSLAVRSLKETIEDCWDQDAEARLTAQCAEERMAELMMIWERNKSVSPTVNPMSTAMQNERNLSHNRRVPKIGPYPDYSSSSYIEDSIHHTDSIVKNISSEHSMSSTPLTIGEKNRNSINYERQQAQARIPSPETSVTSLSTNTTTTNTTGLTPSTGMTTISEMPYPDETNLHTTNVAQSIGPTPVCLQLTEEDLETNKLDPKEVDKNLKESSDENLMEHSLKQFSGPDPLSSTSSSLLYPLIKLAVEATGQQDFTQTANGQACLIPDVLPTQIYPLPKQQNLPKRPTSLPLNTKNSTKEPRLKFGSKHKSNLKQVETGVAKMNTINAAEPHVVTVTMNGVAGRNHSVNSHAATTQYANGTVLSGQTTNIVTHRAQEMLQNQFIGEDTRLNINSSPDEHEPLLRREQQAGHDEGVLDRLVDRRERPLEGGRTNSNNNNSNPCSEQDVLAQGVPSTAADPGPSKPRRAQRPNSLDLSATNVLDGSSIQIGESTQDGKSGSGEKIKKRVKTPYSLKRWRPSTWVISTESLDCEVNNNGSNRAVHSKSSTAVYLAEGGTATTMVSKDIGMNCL
Procedure: as §1

CAMK2B = target: T6, CAMK2B (Homo sapiens, UniProt Q13554); test: DSF; type: binding
T6 construct: purchased in-house DSF panel (SGC Frankfurt)
Procedure: as §1

DYRK1A = target: T7, DYRK1A (Homo sapiens, UniProt Q13627); test: DSF; type: binding
T7 construct: purchased in-house DSF panel (SGC Frankfurt)
Procedure: as §1

CDK4/Cyclin D3 = target: T8, CDK4/Cyclin D3 (Homo sapiens, UniProt P11802); test: NanoBRET; type: cell-based; details: read-out: NanoBRET EC50 ± SEM CDK4/Cyclin D3
T8 construct: Full-length kinases were obtained as plasmids cloned in frame with a terminal NanoLuc-fusion; CS1810C87 (CCND3); host or cells: HEK293T
Procedure: The assay was performed as described previously. In brief: Full-length kinases were obtained as plasmids cloned in frame with a terminal NanoLuc-fusion (Promega, Madison, WI, USA), as specified in table (Table S6). Plasmids were transfected into HEK293T cells using FuGENE HD (Promega, E2312) and proteins were allowed to express for 20h. Serially diluted inhibitor and NanoBRET Kinase Tracer (Promega) at a concentration determined previously as the KD,app (Table S5) were pipetted into white 384-well plates (Greiner 781207) using an Echo acoustic dispenser (Labcyte, San Jose, CA, USA). The corresponding protein-transfected cells were added and reseeded at a density of 2.5 × 10^5 cells/mL after trypsinization and resuspending in Opti-MEM without phenol red (Life Technologies, Carlsbad, CA, USA). The system was allowed to equilibrate for 2 h at 37 °C/5% CO2 prior to BRET measurements. To measure BRET, NanoBRET NanoGlo Substrate + Extracellular NanoLuc Inhibitor (Promega, N2540) was added as per the manufacturer’s protocol, and filtered luminescence was measured on a PHERAstar plate reader (BMG Labtech, Ortenberg, Germany) equipped with a luminescence filter pair (450 nm BP filter (donor) and 610 nm LP filter (acceptor)). Competitive displacement data were then graphed using GraphPad Prism 9 software using a normalized 3-parameter curve fit with the following equation: Y = 100/(1 + 10^(X–LogEC50)).

[1] = test system: in-house panel of 89–105 kinases; test: DSF selectivity screen; type: binding
From the text: To investigate the selectivity profile of the different series, a differential scanning fluorimetry (DSF) assay was used. This assay offers a rapid and sensitive screening method that determines the denaturation temperature of a protein in absence and presence of a compound. This assay format measures the fluorescence of a dye, which depends on the folding state of the protein. The difference between the melting temperature (ΔTm) in the absence and presence of the compound represents the binding strength to the protein. We used an in-house panel of 89–105 kinases to screen all synthesized inhibitors (Tables S1–S3).
Measurements were performed in duplicates.

T8 sequence (P11802 whole entry, the tested form may be a part): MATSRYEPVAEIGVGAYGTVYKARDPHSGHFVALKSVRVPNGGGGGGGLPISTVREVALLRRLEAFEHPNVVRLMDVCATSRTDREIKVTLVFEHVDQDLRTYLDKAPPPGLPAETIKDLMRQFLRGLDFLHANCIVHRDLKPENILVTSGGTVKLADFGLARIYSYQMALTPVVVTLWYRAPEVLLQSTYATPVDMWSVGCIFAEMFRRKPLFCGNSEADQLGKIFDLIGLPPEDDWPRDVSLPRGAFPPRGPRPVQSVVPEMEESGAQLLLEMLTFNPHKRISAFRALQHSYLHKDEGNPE
T8 sequence (P30281 whole entry partner, the tested form may be a part): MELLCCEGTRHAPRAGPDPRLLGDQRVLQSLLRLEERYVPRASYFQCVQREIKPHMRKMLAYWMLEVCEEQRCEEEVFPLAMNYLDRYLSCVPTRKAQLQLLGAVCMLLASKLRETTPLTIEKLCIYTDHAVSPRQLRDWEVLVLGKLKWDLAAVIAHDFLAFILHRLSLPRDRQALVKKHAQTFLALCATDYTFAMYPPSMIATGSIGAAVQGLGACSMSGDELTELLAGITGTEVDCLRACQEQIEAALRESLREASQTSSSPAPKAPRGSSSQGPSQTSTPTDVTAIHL
T1 sequence (P34947 whole entry): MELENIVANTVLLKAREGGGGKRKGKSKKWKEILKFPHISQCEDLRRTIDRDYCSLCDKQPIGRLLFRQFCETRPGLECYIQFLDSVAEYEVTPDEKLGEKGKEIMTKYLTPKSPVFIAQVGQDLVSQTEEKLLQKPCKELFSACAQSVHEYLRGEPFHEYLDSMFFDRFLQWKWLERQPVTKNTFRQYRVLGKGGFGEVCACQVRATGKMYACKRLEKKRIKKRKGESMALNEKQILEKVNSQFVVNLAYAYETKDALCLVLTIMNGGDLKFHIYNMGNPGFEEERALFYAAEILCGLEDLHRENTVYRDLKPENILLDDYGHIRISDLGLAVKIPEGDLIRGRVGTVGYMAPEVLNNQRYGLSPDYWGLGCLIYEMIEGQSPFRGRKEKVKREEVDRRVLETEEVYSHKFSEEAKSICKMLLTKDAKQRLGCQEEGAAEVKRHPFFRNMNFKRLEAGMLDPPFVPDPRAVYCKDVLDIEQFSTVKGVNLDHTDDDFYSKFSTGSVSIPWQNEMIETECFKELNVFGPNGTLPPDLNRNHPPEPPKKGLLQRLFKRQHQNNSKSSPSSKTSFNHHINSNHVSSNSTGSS
T3 sequence (Q02750 68-361): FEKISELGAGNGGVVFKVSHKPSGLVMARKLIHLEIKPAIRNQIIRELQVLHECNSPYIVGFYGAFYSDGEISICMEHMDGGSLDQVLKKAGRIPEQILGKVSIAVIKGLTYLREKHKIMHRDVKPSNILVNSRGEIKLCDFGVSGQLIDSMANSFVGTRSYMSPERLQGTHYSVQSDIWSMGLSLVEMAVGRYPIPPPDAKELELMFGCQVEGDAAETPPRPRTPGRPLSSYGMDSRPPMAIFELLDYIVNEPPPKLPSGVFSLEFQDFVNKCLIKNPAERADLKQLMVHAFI
T6 sequence (Q13554 11-303): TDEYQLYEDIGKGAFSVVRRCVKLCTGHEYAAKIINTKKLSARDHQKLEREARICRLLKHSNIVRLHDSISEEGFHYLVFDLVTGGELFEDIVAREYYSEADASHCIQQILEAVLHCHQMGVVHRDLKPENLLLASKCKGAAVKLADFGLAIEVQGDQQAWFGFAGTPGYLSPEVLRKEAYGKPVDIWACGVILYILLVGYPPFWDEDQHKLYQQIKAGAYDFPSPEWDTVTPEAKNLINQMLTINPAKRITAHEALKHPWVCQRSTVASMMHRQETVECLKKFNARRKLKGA
T2 sequence (Q8IU85 23-279): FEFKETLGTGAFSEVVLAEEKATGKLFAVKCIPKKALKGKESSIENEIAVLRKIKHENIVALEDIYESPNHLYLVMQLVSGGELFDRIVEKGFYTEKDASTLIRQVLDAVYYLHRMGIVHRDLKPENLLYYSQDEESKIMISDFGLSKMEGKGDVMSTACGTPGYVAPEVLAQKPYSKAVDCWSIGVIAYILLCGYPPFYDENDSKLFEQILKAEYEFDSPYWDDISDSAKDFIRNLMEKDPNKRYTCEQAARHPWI
T4 sequence (P49761 127-484): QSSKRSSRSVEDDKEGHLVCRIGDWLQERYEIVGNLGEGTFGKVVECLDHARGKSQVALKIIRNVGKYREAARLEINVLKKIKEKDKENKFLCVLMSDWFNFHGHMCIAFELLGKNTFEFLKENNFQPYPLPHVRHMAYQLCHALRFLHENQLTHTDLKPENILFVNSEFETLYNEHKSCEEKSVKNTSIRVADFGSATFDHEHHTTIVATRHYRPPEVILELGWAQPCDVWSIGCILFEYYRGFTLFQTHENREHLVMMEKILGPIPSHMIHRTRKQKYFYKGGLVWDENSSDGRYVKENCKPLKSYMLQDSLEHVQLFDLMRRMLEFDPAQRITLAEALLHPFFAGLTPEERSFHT

Row | Compound | ΔTm GPRK5 (GPRK5) | ΔTm CAMK1D (CAMK1D) | ΔTm MAP2K1 (MAP2K1) | ΔTm CLK3 (CLK3) | ΔTm BMPR2 (BMPR2) | ΔTm CAMK2B (CAMK2B) | ΔTm DYRK1A (DYRK1A) | EC50 (CDK4/Cyclin D3) | Kinases with shifts > 5°C ([1]; number of kinases of the DSF panel) | kinases beside CDK16 with DSF shift >5 °C (potential off-targets) [1]
1 | COC(=O)c1cc(Nc2ccnc(NCCOCCNC(=O)OC(C)(C)C)n2)[nH]n1 [21d, methyl 5-((2-((2-(2-((tert-butoxycarbonyl)amino)ethoxy)ethyl)amino)pyrimidin-4-yl)amino)-1H-pyrazole-3-carboxylate] | 0.2 °C | 1.4 °C | 0.7 °C | 1.1 °C | 0.7 °C | 0.2 °C | 1.2 °C |  |  | 
2 | COC(=O)c1cc(Nc2ccnc(NCc3ccc(NC(=O)OC(C)(C)C)cc3)n2)[nH]n1 [21i, methyl 5-((2-((4-((tert-butoxycarbonyl)amino)benzyl)amino)pyrimidin-4-yl)amino)-1H-pyrazole-3-carboxylate] | 0.7 °C | -0.5 °C | -0.5 °C | 0.4 °C | 1.1 °C | 0.6 °C | 3.4 °C | 6.78 ± 1.46 µM | 4–9 | 
3 | CC(C)OC(=O)c1cc(Nc2ccnc(NCc3ccc(NC(=O)OC(C)(C)C)cc3)n2)n[nH]1 [42d, isopropyl 3-((2-((4-((tert-butoxycarbonyl)amino)benzyl)amino)pyrimidin-4-yl)amino)-1H-pyrazole-5-carboxylate] | -1.3 °C | -2.4 °C |  | -0.4 °C | 0.9 °C | -1.2 °C | 0.0 °C | 0.508 ± 0.0866 µM |  | 1–2 and 1
4 | CC(C)(C)OC(=O)Nc1ccc(CNc2nccc(Nc3cc(C(=O)OC(C)(C)C)[nH]n3)n2)cc1 [43d, tert-butyl 3-((2-((4-((tert-butoxycarbonyl)amino)benzyl)amino)pyrimidin-4-yl)amino)-1H-pyrazole-5-carboxylate] | -1.4 °C | -2.9 °C |  | 0.0 °C | 1.4 °C | -0.5 °C | 1.8 °C | 0.908 ± 0.113 µM |  | 1–2 and 2
5 | N#CCc1ccc(Nc2nccc(Nc3cc(C4CC4)[nH]n3)n2)cc1 [compound 1, reference compound] | 5.2 °C | 5.4 °C | 1.4 °C | 11.3 °C | 9.2 °C | 4.4 °C | 8.2 °C | 0.0321 ± 0.0031 µM |  | 
